EP0340778A2, “Prodrugs of 2',3'- Didehydro-2',3'-Dideoxynucleosides” (Bristol-Myers Squibb Company, priority 1988, dated 1989)
pIC50: −log10 of the molar value. Where two headings read alike, the source gives them in different places.

Tested on: HIV (LAV strain)
Assay: anti-HIV/LAV activity in cultures of CEM-F cells, p-24 gag protein enzyme capture assay (ELISA)
Type: cell-based
Settings: Human immunodeficiency virus 1, CCRF-CEM, 192 h, read-out: ID₅₀
Description: The anti-HIV/LAV activity of several compounds representative of this invention and of d4T for comparison was measured in cultures of CEM-F cells. The CEM cells were infected with approximately 30 TCID₅₀ (50% tissue culture infectious dose) of HIV (LAV strain). The cells were then incubated for 45 min 37°C. The test compounds, in culture medium, were added at various concentrations to the infected cells and then incubated for a further 8 days. After 8 days the antiviral activity was evaluated in the culture media supernatant for p-24 gag protein by an enzyme capture assay (ELISA). The antiviral activity was expressed as the dose which inhibits 50% of the virus expression (ID₅₀ in µM) as detected by the assay described.

[1] = dose which inhibits 50% of the virus expression, CEM cells infected with approximately 30 TCID₅₀ of HIV (LAV strain), 8 days incubation with compound, p-24 gag protein in culture media supernatant

SMILES	pIC50	pIC50 [1]
COCC(=O)OCC1C=CC(n2cc(C)c(=O)[nH]c2=O)O1 (stereo not drawn) [Example 3, 5′-O-Methoxyacetyl-2′,3′-didehydro-2′,3′-dideoxythymidine]	6.40	
Nc1ccn([C@H]2C=C[C@@H](COC(=O)c3ccccc3)O2)c(=O)n1 [Example 12, 5′-O-Benzoyl-2′,3′-didehydro-2′,3′dideoxycytidine]		7.00
CC(=O)OC[C@@H]1C=C[C@H](n2cc(C)c(=O)[nH]c2=O)O1 [Example 1, 5′-O-Acetyl-2′,3′-didehydro-2′,3′-dideoxythymidine]	5.49	
Cc1cn(C2C=CC(COC(=O)c3ccccc3)O2)c(=O)[nH]c1=S (stereo not drawn) [Example 8, 5′-O-Benzoyl-2′,3′-dihydro-2′,3′-dideoxy-4-thio-thymidine]	6.30	
Cc1cn([C@H]2C=C[C@@H](CO)O2)c(=O)[nH]c1=O [d4T, 2′,3′-didehydro-2′,3′-dideoxythymidine, reference compound]	6.70	
Cc1cn([C@H]2C=C[C@@H](COC(=O)OC3CCCCC3)O2)c(=O)[nH]c1=O [Example 6, 5′-O-Cyclohexyloxycarbonyl-2′,3′-didehydro-2′,3′-dideoxy-thymidine]	6.22	
Cc1cn([C@H]2C=C[C@@H](COC(=O)C(C)(C)C)O2)c(=O)[nH]c1=O [Example 4, 5′-O-Pivaloyl-2′,3′-didehydro-2′,3′-dideoxythymidine]	5.32	
O=C(OC[C@@H]1C=C[C@H](n2ccc(=S)[nH]c2=O)O1)c1ccccc1 [Example 11, 5′-O-Benzoyl-2′,3′-didehydro-2′,3′-dideoxy-4-thio-uridine]		6.30
COC(=O)OC[C@@H]1C=C[C@H](n2cc(C)c(=O)[nH]c2=O)O1 [Example 5, 5′-O-Methoxycarbonyl-2′,3′-didehydro-2′,3′-dideoxythymidine]	5.49	
